Assay results reported in PubChem BioAssay AID2060890 (Molecular Pharmacology Branch, DTP, NCI, 2025).
pIC50: −log10 of the molar value. “And” between values parts separate entries of the source, which are not always exact repeats. Equal values may be shown once.

System: LG0703-F948-PDC complex spheroid viability
Experiment: Anticancer human tumor LG0703-F948-PDC patient-derived lung adenocarcinoma cell line growth inhibition [RAS]
Details: for viability, T/C: stronger effect = lower value
In short: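 Multi-cell-type spheroids: tumor cells plus HUVEC endothelial cells and mesenchymal stem cells. RAS-pathway inhibitors were combined with targeted agents, each dosed in half-log steps down from clinical Cmax, or from 10 microM when Cmax was unknown.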

[1] = curve of first compound, second compound 0.000949 µM
[2] = curve of first compound, second compound 0.003 µM
[3] = curve of first compound, second compound 0.00949 µM
[4] = curve of first compound, second compound 0.03 µM
[5] = curve of first compound, second compound 0.0949 µM
[6] = curve of first compound, second compound 0.3 µM
[7] = second compound 0.000949 µM, first compound 0.0316 µM
[8] = second compound 0.000949 µM, first compound 0.1 µM
[9] = second compound 0.000949 µM, first compound 0.316 µM
[10] = second compound 0.000949 µM, first compound 1 µM
[11] = second compound 0.000949 µM, first compound 3.16 µM
[12] = second compound 0.000949 µM, first compound 10 µM
[13] = second compound 0.003 µM, first compound 0.0316 µM
[14] = second compound 0.003 µM, first compound 0.1 µM
[15] = second compound 0.003 µM, first compound 0.316 µM
[16] = second compound 0.003 µM, first compound 1 µM
[17] = second compound 0.003 µM, first compound 3.16 µM
[18] = second compound 0.003 µM, first compound 10 µM
[19] = second compound 0.00949 µM, first compound 0.0316 µM
[20] = second compound 0.00949 µM, first compound 0.1 µM
[21] = second compound 0.00949 µM, first compound 0.316 µM
[22] = second compound 0.00949 µM, first compound 1 µM
[23] = second compound 0.00949 µM, first compound 3.16 µM
[24] = second compound 0.00949 µM, first compound 10 µM
[25] = second compound 0.03 µM, first compound 0.0316 µM
[26] = second compound 0.03 µM, first compound 0.1 µM
[27] = second compound 0.03 µM, first compound 0.316 µM
[28] = second compound 0.03 µM, first compound 1 µM
[29] = second compound 0.03 µM, first compound 3.16 µM
[30] = second compound 0.03 µM, first compound 10 µM
[31] = second compound 0.0949 µM, first compound 0.0316 µM
[32] = second compound 0.0949 µM, first compound 0.1 µM
[33] = second compound 0.0949 µM, first compound 0.316 µM
[34] = second compound 0.0949 µM, first compound 1 µM
[35] = second compound 0.0949 µM, first compound 3.16 µM
[36] = second compound 0.0949 µM, first compound 10 µM
[37] = second compound 0.3 µM, first compound 0.0316 µM
[38] = second compound 0.3 µM, first compound 0.1 µM
[39] = second compound 0.3 µM, first compound 0.316 µM
[40] = second compound 0.3 µM, first compound 1 µM
[41] = second compound 0.3 µM, first compound 3.16 µM
[42] = second compound 0.3 µM, first compound 10 µM
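Also: spheroids exposed to agents for 7 days.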
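For viability, T/C in this document: 100% = DMSO vehicle wells.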

`NC1c2ccccc2OC12CCN(c1cnc3c(N4CCCc5ncccc54)n[nH]c3n1)CC2` (stereo not drawn) + C#Cc1c(F)ccc2cc(O)cc(-c3ncc4c(N5CC6CCC(C5)N6)nc(OCC56CCCN5CC(F)C6)nc4c3F)c12 showed a pIC50 (curve of first compound, second compound 0.0316 µM) of 7.36, a pIC50 (curve of first compound, second compound 0.1 µM) greater than 7.50 and a pIC50 (curve of first compound, second compound 0.316 µM) greater than 7.50. For the same molecule, the pIC50 (curve of first compound, second compound 1 µM) was greater than 7.50, the pIC50 (curve of first compound, second compound 3.16 µM) was greater than 7.50 and the pIC50 (curve of first compound, second compound 10 µM) was greater than 7.50. For the same molecule, the viability, T/C (second compound 0.0316 µM, first compound 0.0316 µM) was 56.9%, the viability, T/C (second compound 0.0316 µM, first compound 0.1 µM) was 32.3% and the viability, T/C (second compound 0.0316 µM, first compound 0.316 µM) was 14.9%. For the same molecule, the viability, T/C (second compound 0.0316 µM, first compound 1 µM) was 16.3%, the viability, T/C (second compound 0.0316 µM, first compound 3.16 µM) was 5.44% and the viability, T/C (second compound 0.0316 µM, first compound 10 µM) was 2.29%. It also gave a viability, T/C (second compound 0.1 µM, first compound 0.0316 µM) of 48.8%, a viability, T/C (second compound 0.1 µM, first compound 0.1 µM) of 27.7% and a viability, T/C (second compound 0.1 µM, first compound 0.316 µM) of 16.5%. For the same molecule, the viability, T/C (second compound 0.1 µM, first compound 1 µM) was 8.26%, the viability, T/C (second compound 0.1 µM, first compound 3.16 µM) was 4.2% and the viability, T/C (second compound 0.1 µM, first compound 10 µM) was 2.16%. The viability, T/C (second compound 0.316 µM, first compound 0.0316 µM) was 43.7%, the viability, T/C (second compound 0.316 µM, first compound 0.1 µM) was 30.5% and the viability, T/C (second compound 0.316 µM, first compound 0.316 µM) was 14.4%. It also gave a viability, T/C (second compound 0.316 µM, first compound 1 µM) of 6.72%, a viability, T/C (second compound 0.316 µM, first compound 3.16 µM) of 4.41% and a viability, T/C (second compound 0.316 µM, first compound 10 µM) of 2.49%. It also gave a viability, T/C (second compound 1 µM, first compound 0.0316 µM) of 28.2%, a viability, T/C (second compound 1 µM, first compound 0.1 µM) of 21.9% and a viability, T/C (second compound 1 µM, first compound 0.316 µM) of 9.98%. For the same molecule, the viability, T/C (second compound 1 µM, first compound 1 µM) was 6.62%, the viability, T/C (second compound 1 µM, first compound 3.16 µM) was 3.17% and the viability, T/C (second compound 1 µM, first compound 10 µM) was 1.84%. The viability, T/C (second compound 3.16 µM, first compound 0.0316 µM) was 28.2%, the viability, T/C (second compound 3.16 µM, first compound 0.1 µM) was 15.1% and the viability, T/C (second compound 3.16 µM, first compound 0.316 µM) was 11.1%. For the same molecule, the viability, T/C (second compound 3.16 µM, first compound 1 µM) was 6.14%, the viability, T/C (second compound 3.16 µM, first compound 3.16 µM) was 4.26% and the viability, T/C (second compound 3.16 µM, first compound 10 µM) was 1.29%. For the same molecule, the viability, T/C (second compound 10 µM, first compound 0.0316 µM) was 21%, the viability, T/C (second compound 10 µM, first compound 0.1 µM) was 13.5% and the viability, T/C (second compound 10 µM, first compound 0.316 µM) was 5.38%. The viability, T/C (second compound 10 µM, first compound 1 µM) was 2.35%, the viability, T/C (second compound 10 µM, first compound 3.16 µM) was 2.25% and the viability, T/C (second compound 10 µM, first compound 10 µM) was 0.66%.
For `CCC(CC)c1cc(NC2CCC(N)C2)n2nccc2n1` (stereo not drawn) + CCn1c(-c2cccnc2C(C)OC)c2c3cc(ccc31)N1CCOC(CC(NC(=O)C(C(C)C)N(C)C(=O)C3(F)CCN(C(=O)C#CC(C)(C)N(C)C)CC3)C(=O)N3CCCC(N3)C(=O)OCC(C)(C)C2)C1, the pIC50 [1] was 6.02, the pIC50 [2] was 5.98 and the pIC50 [3] was 5.80. For the same molecule, the pIC50 [4] was 5.96, the pIC50 [5] was 6.44 and the pIC50 [6] was greater than 7.50. The viability, T/C [7] was 104%, the viability, T/C [8] was 89.9% and the viability, T/C [9] was 79.8%. The viability, T/C [10] was 54%, the viability, T/C [11] was 5.17% and the viability, T/C [12] was 0.33%. It also gave a viability, T/C [13] of 104%, a viability, T/C [14] of 96.8% and a viability, T/C [15] of 79.4%. For the same molecule, the viability, T/C [16] was 58.2%, the viability, T/C [17] was 4.18% and the viability, T/C [18] was 0.26%. It also gave a viability, T/C [19] of 87.5%, a viability, T/C [20] of 79.6% and a viability, T/C [21] of 80.6%. For the same molecule, the viability, T/C [22] was 81.6%, the viability, T/C [23] was 4.34% and the viability, T/C [24] was 0.8%. The viability, T/C [25] was 100%, the viability, T/C [26] was 91.1% and the viability, T/C [27] was 77.5%. For the same molecule, the viability, T/C [28] was 58.6%, the viability, T/C [29] was 4.55% and the viability, T/C [30] was 0.32%. It also gave a viability, T/C [31] of 85.2%, a viability, T/C [32] of 65.5% and a viability, T/C [33] of 53.1%. For the same molecule, the viability, T/C [34] was 37.2%, the viability, T/C [35] was 3.64% and the viability, T/C [36] was 0.29%. The viability, T/C [37] was 41.6%, the viability, T/C [38] was 41.2% and the viability, T/C [39] was 27.3%. For the same molecule, the viability, T/C [40] was 22.4%, the viability, T/C [41] was 3.57% and the viability, T/C [42] was 0.69%.
In the case of `CCN1CCN(Cc2ccc(Nc3ncc(F)c(-c4cc(F)c5nc(C)n(C(C)C)c5c4)n3)nc2)CC1`, the viability, T/C (compound 0.00316 µM) was 110% and 103% (2×) and 94.4%, the viability, T/C (compound 0.01 µM) was 91.3% [middle of 4 runs] and the viability, T/C (compound 0.0316 µM) was 84.7% [middle of 4 runs]. For the same molecule, the viability, T/C (compound 0.1 µM) was 85.1% [middle of 4 runs], the viability, T/C (compound 0.316 µM) was 92.1% [middle of 4 runs] and the viability, T/C (compound 1 µM) was 83.4% [middle of 4 runs]. The pIC50 (curve of compound) was less than 6.00.
With `CC(Nc1ccc2c(c1)OCCn1cc(N3C(=O)OCC3C(F)F)nc1-2)C(N)=O` (stereo not drawn) + CCn1c(-c2cccnc2C(C)OC)c2c3cc(ccc31)N1CCOC(CC(NC(=O)C(C(C)C)N(C)C(=O)C3(F)CCN(C(=O)C#CC(C)(C)N(C)C)CC3)C(=O)N3CCCC(N3)C(=O)OCC(C)(C)C2)C1 the pIC50 [1] was 5.59, the pIC50 [2] was 5.65 and the pIC50 [3] was 5.67. The pIC50 [4] was 5.92, the pIC50 [5] was 6.41 and the pIC50 [6] was greater than 7.50. The viability, T/C [7] was 101%, the viability, T/C [8] was 82.3% and the viability, T/C [9] was 89.8%. It also gave a viability, T/C [10] of 63.6%, a viability, T/C [11] of 46.5% and a viability, T/C [12] of 24.1%. For the same molecule, the viability, T/C [13] was 102%, the viability, T/C [14] was 86.6% and the viability, T/C [15] was 72.8%. For the same molecule, the viability, T/C [16] was 61.8%, the viability, T/C [17] was 45.4% and the viability, T/C [18] was 32.6%. It also gave a viability, T/C [19] of 102%, a viability, T/C [20] of 83.2% and a viability, T/C [21] of 77.8%. It also gave a viability, T/C [22] of 54.6%, a viability, T/C [23] of 52.7% and a viability, T/C [24] of 25.4%. For the same molecule, the viability, T/C [25] was 100%, the viability, T/C [26] was 81.7% and the viability, T/C [27] was 60.8%. The viability, T/C [28] was 56.5%, the viability, T/C [29] was 41.5% and the viability, T/C [30] was 23.3%. It also gave a viability, T/C [31] of 74.1%, a viability, T/C [32] of 64.8% and a viability, T/C [33] of 54.3%. For the same molecule, the viability, T/C [34] was 35.2%, the viability, T/C [35] was 31.7% and the viability, T/C [36] was 19.9%. It also gave a viability, T/C [37] of 41.6%, a viability, T/C [38] of 32.1% and a viability, T/C [39] of 24.8%. It also gave a viability, T/C [40] of 18.8%, a viability, T/C [41] of 15.4% and a viability, T/C [42] of 10.1%.
